In ChEMBL document CHEMBL5352470, “RS6077 induces mitotic arrest and selectively activates cell death in human cancer cell lines and in a lymphoma tumor in vivo” (Eur J Med Chem, 2023):
Activity calls are given as the source filed them. No cut-off for these calls is given here.

Tests used:
[1] = test system: TERT-RPE1; experiment: Induction of cell cycle arrest in human TERT-RPE1 cells assessed as accumulation of cells at G1 phase at 100 nM incubated for 72 hrs by annexin V-FITC and PI staining based flow cytometry analysis; assay type: functional
[2] = test system: TERT-RPE1; experiment: Induction of cell cycle arrest in human TERT-RPE1 cells assessed as accumulation of cells at G1 phase at 1000 nM incubated for 72 hrs by annexin V-FITC and PI staining based flow cytometry analysis; assay type: functional
[3] = test system: TERT-RPE1; experiment: Induction of cell cycle arrest in human TERT-RPE1 cells assessed as accumulation of cells at G1 phase at 2500 nM incubated for 72 hrs by annexin V-FITC and PI staining based flow cytometry analysis; assay type: functional
[4] = test system: TERT-RPE1; experiment: Induction of cell cycle arrest in human TERT-RPE1 cells assessed as accumulation of cells at S phase at 100 nM incubated for 72 hrs by annexin V-FITC and PI staining based flow cytometry analysis; assay type: functional
[5] = test system: TERT-RPE1; experiment: Induction of cell cycle arrest in human TERT-RPE1 cells assessed as accumulation of cells at S phase at 1000 nM incubated for 72 hrs by annexin V-FITC and PI staining based flow cytometry analysis; assay type: functional
[6] = test system: TERT-RPE1; experiment: Induction of cell cycle arrest in human TERT-RPE1 cells assessed as accumulation of cells at S phase at 2500 nM incubated for 72 hrs by annexin V-FITC and PI staining based flow cytometry analysis; assay type: functional
[7] = test system: TERT-RPE1; experiment: Induction of cell cycle arrest in human TERT-RPE1 cells assessed as accumulation of cells at G2/M phase at 100 nM incubated for 72 hrs by annexin V-FITC and PI staining based flow cytometry analysis; assay type: functional
[8] = test system: TERT-RPE1; experiment: Induction of cell cycle arrest in human TERT-RPE1 cells assessed as accumulation of cells at G2/M phase at 1000 nM incubated for 72 hrs by annexin V-FITC and PI staining based flow cytometry analysis; assay type: functional
[9] = test system: TERT-RPE1; experiment: Induction of cell cycle arrest in human TERT-RPE1 cells assessed as accumulation of cells at G2/M phase at 2500 nM incubated for 72 hrs by annexin V-FITC and PI staining based flow cytometry analysis; assay type: functional
[10] = test system: HeLa; experiment: Induction of cell cycle arrest in human HeLa cells assessed as accumulation of cells at G1 phase at 100 nM incubated for 72 hrs by annexin V-FITC and PI staining based flow cytometry analysis; assay type: functional
[11] = test system: HeLa; experiment: Induction of cell cycle arrest in human HeLa cells assessed as accumulation of cells at G1 phase at 1000 nM incubated for 72 hrs by annexin V-FITC and PI staining based flow cytometry analysis; assay type: functional
[12] = test system: HeLa; experiment: Induction of cell cycle arrest in human HeLa cells assessed as accumulation of cells at G1 phase at 2500 nM incubated for 72 hrs by annexin V-FITC and PI staining based flow cytometry analysis; assay type: functional
[13] = test system: HeLa; experiment: Induction of cell cycle arrest in human HeLa cells assessed as accumulation of cells at S phase at 100 nM incubated for 72 hrs by annexin V-FITC and PI staining based flow cytometry analysis; assay type: functional
[14] = test system: HeLa; experiment: Induction of cell cycle arrest in human HeLa cells assessed as accumulation of cells at S phase at 1000 nM incubated for 72 hrs by annexin V-FITC and PI staining based flow cytometry analysis; assay type: functional
[15] = test system: HeLa; experiment: Induction of cell cycle arrest in human HeLa cells assessed as accumulation of cells at S phase at 2500 nM incubated for 72 hrs by annexin V-FITC and PI staining based flow cytometry analysis; assay type: functional
[16] = test system: HeLa; experiment: Induction of cell cycle arrest in human HeLa cells assessed as accumulation of cells at G2/M phase at 100 nM incubated for 72 hrs by annexin V-FITC and PI staining based flow cytometry analysis; assay type: functional
[17] = test system: HeLa; experiment: Induction of cell cycle arrest in human HeLa cells assessed as accumulation of cells at G2/M phase at 1000 nM incubated for 72 hrs by annexin V-FITC and PI staining based flow cytometry analysis; assay type: functional
[18] = test system: HeLa; experiment: Induction of cell cycle arrest in human HeLa cells assessed as accumulation of cells at G2/M phase at 2500 nM incubated for 72 hrs by annexin V-FITC and PI staining based flow cytometry analysis; assay type: functional
[19] = test system: AHH-1; experiment: Induction of cell cycle arrest in human AHH-1 cells assessed as accumulation of cells at G1 phase at 100 nM incubated for 72 hrs by annexin V-FITC and PI staining based flow cytometry analysis; assay type: functional
[20] = test system: AHH-1; experiment: Induction of cell cycle arrest in human AHH-1 cells assessed as accumulation of cells at G1 phase at 1000 nM incubated for 72 hrs by annexin V-FITC and PI staining based flow cytometry analysis; assay type: functional
[21] = test system: AHH-1; experiment: Induction of cell cycle arrest in human AHH-1 cells assessed as accumulation of cells at G1 phase at 2500 nM incubated for 72 hrs by annexin V-FITC and PI staining based flow cytometry analysis; assay type: functional
[22] = test system: AHH-1; experiment: Induction of cell cycle arrest in human AHH-1 cells assessed as accumulation of cells at S phase at 100 nM incubated for 72 hrs by annexin V-FITC and PI staining based flow cytometry analysis; assay type: functional
[23] = test system: AHH-1; experiment: Induction of cell cycle arrest in human AHH-1 cells assessed as accumulation of cells at S phase at 1000 nM incubated for 72 hrs by annexin V-FITC and PI staining based flow cytometry analysis; assay type: functional
[24] = test system: AHH-1; experiment: Induction of cell cycle arrest in human AHH-1 cells assessed as accumulation of cells at S phase at 2500 nM incubated for 72 hrs by annexin V-FITC and PI staining based flow cytometry analysis; assay type: functional
[25] = test system: AHH-1; experiment: Induction of cell cycle arrest in human AHH-1 cells assessed as accumulation of cells at G2/M phase at 100 nM incubated for 72 hrs by annexin V-FITC and PI staining based flow cytometry analysis; assay type: functional
[26] = test system: AHH-1; experiment: Induction of cell cycle arrest in human AHH-1 cells assessed as accumulation of cells at G2/M phase at 1000 nM incubated for 72 hrs by annexin V-FITC and PI staining based flow cytometry analysis; assay type: functional
[27] = test system: AHH-1; experiment: Induction of cell cycle arrest in human AHH-1 cells assessed as accumulation of cells at G2/M phase at 2500 nM incubated for 72 hrs by annexin V-FITC and PI staining based flow cytometry analysis; assay type: functional
[28] = test system: HeLa; experiment: Induction of cell cycle arrest in human HeLa cells assessed as accumulation of cells at sub-G1 phase incubated for 72 hrs by annexin V-FITC and PI staining based flow cytometry analysis; assay type: functional
[29] = test system: AHH-1; experiment: Induction of cell cycle arrest in human AHH-1 cells assessed as accumulation of cells at sub-G1 phase incubated for 72 hrs by annexin V-FITC and PI staining based flow cytometry analysis; assay type: functional
[30] = test system: AHH-1; experiment: Induction of apoptosis in human AHH-1 cells at 100 to 2500 nM measured after 72 hrs by annexin V-FITC and PI staining based flow cytometry analysis; assay type: functional, cell-based; details: dose 100-2500 nM
[31] = test system: Farage; experiment: Antiproliferative activity against human Farage cells assessed as inhibition of cell growth measured for 72 hrs by MTT assay; assay type: functional, cell-based
[32] = test system: KARPAS-422; experiment: Antiproliferative activity against human KARPAS-422 cells assessed as inhibition of cell growth measured for 72 hrs by MTT assay; assay type: functional, cell-based; details: KARPAS-422, 72 h
[33] = test system: TMD8; experiment: Antiproliferative activity against human TMD8 cells assessed as inhibition of cell growth measured for 72 hrs by MTT assay; assay type: functional, cell-based; details: TMD8, 72 h
[34] = test system: U2932; experiment: Antiproliferative activity against human U2932 cells assessed as inhibition of cell growth measured for 72 hrs by MTT assay; assay type: functional, cell-based; details: U2932, 72 h
[35] = test system: Z-138; experiment: Antiproliferative activity against human Z138 cells assessed as inhibition of cell growth measured for 72 hrs by MTT assay; assay type: functional, cell-based; details: Z-138, 72 h
[36] = test system: Maver1; experiment: Antiproliferative activity against human MAVER-1 cells assessed as inhibition of cell growth measured for 72 hrs by MTT assay; assay type: functional, cell-based; details: Maver1, 72 h
[37] = Metabolic stability in human liver microsome assessed as half life measured upto 60 mins by LC-MS/MS analysis; assay type: ADME; details: liver microsomes
[38] = Metabolic stability in mouse liver microsome assessed as half life measured upto 60 mins by LC-MS/MS analysis; assay type: ADME; details: liver microsomes

COc1ccc(/C=C\c2cc(OC)c(OC)c(OC)c2)cc1O [COMBRETASTATIN A4]
Activity [1]: 23% | Activity [2]: 17.1% | Activity [3]: 19% | Activity [4]: 9% | Activity [5]: 8.4% | Activity [6]: 5.4% | Activity [7]: 68% | Activity [8]: 74.6% | Activity [9]: 73% | Activity [10]: 23.4% | Activity [11]: 10.1% | Activity [12]: 8.8% | Activity [13]: 15.5% | Activity [14]: 16.8% | Activity [15]: 9.2% | Activity [16]: 61.1% | Activity [17]: 73.1% | Activity [18]: 75.2% | Activity [19]: 8.6% | Activity [20]: 7.8% | Activity [21]: 7% | Activity [22]: 17% | Activity [23]: 13.4% | Activity [24]: 10.3% | Activity [25]: 74.5% | Activity [26]: 78.8% | Activity [27]: 74.1% | Activity [28]: Active | Activity [29]: Active | Activity [30]: Active | IC50 [31]: 700 pM | IC50 [32]: 580 pM | IC50 [33]: 660 pM | IC50 [34]: 890 pM | IC50 [35]: 780 pM | IC50 [36]: 4600 pM

CCOc1ccc2ccc(=O)oc2c1 [ETHOXYCOUMARIN]
half-life [37]: 8.3 min | half-life [38]: 3.3 min

CC(C)NCC(O)COc1cccc2ccccc12 (stereo not given) [PROPRANOLOL]
half-life [37]: 47 min | half-life [38]: 11.8 min
